Assay results from patent US5376658A, “5,10-methylene-tetrahydrofolate as a modulator of a chemotherapeutic agent” (priority 1993, dated 1994).
Where two headings read alike, the source gives them in different places. Each block holds one compound with its values, some of them ahead of it.

Key:
[1] = biological target: T1, thymidylate synthase (TS) (Mus musculus, UniProt P07607); assay: TS inhibition in murine colon carcinoma tumor CA51 (Tumor 51) after i.p. 5-FU with or without CH2 FH4; type: in vivo; conditions: for Free TS / inhibition at 80 mg/kg: 5-FU 80 mg/kg i.p.; for Free TS: CH2 FH4 27 mg/kg in (6R), not corrected; for inhibition at 80 mg/kg: mouse, ip, baseline total TS 10.00 pmol/g
T1 construct: [6-3H]FdUMP titration of free TS
Protocol: (6R, S)-CH2 FH4 was prepared by the DEAE-cellulose column procedure, described above, using step-elution of the material as previously reported for purification of nucleotides (Moran et al., Proc. Natl. Aca. Sci. USA 76:1456-60 (1979)). […] Because of the high formaldehyde, this solution was over 2 mM in CH2 FH4, with less FH4 present as the solution isomer. After 20 min at room temperature, this solution was applied to a 1×3-cm DEAE-cellulose column; in the last step, the 500 mM NH4HCO3 (pH 8.0) fraction (30 mL) was pooled, lyophilized to dryness, and stored under vacuum in glass ampoules. This fraction contains both diastereomers of CH2 FH4.
On the day of reconstituting the above CH2 FH4, mice bearing subcutaneous murine colon carcinoma Tumor 51 were administered intraperitoneal (i.p.) 5-FU, with or without concomitant i.p. CH2 FH4 by separate injection. The 5-FU was given at a dose of 1.6 mg per mouse, about 80 mg/kg. The CH2 FH4 was given at a dose of 0.5 mL of the 2.4 mM material ([…]), above. The in vivo methodologies were essentially as had previously been described (C. P. Spears, et al., Cancer Res. 42:450-56 (1982)). […] The levels of apparent free TS in tumors of mice receiving CH2 FH4 concomitant with 5-FU were at, or below, that level due to exchange-labeling of endogenous TS-FdUMP-folate ternary complexes in the cytosolic extracts. […] This is exactly the qualitative difference between sensitivity and resistance to 5-FU previously established (see Spears et al., Cancer Res. 42:450-52 (1982)).

[2] = tested on: hepatic colonic carcinoma; assay: Tumor weight in rats bearing transplanted hepatic colonic carcinoma; type: in vivo, rat; conditions: Day 17 after transplantation; 30 mg/kg each; average of 3 rats; control 5.84
Source text: (§1) The present inventors have considerable experience with this model, and the antitumor effects of 5-FU shown are typical results, as are the TS and folate assays of control and 5-FU-only-treated rats. […] In fact, the "free TS" levels in the (6R,S)-FH4 -only-treated rats were the lowest of all arms of the study.
>94% by HPLC). The (6 R,S)FH 4 was weighed, dissolved in normal
saline, and injected daily by tail vein administration using the airfree
Protector device to prevent oxidative destruction of the folate.
(§2) ^b Inoculation of 1 × 10^6 viable colon tumor
(§3) (nitrosoguanidineinduced) cells under the liver capsule on Day 1 (Carlsso
(§4) et al., Anticancer Res. 10:813-16 (1990)). Animals sacrificed on Day 17
(§5) for excision of single liver tumor nodules for pharmacodynamic studies.

[3] = tested on: TS; assay: TS assay in liver tumors of rats bearing transplanted hepatic colonic carcinoma; type: in vivo, rat; conditions: 30 mg/kg each; 24 h after last injection; control 18.96
Source text: as §1, §2, §3, §4, §5
(§6) ^d Assays done as described (Spears et al. Adv. Exp. Med. Biol.

[4] = tested on: 5,10-CH2 FH4 and FH4 levels in liver tumor; assay: Folate assay (5,10-CH2 FH4 and FH4) in liver tumors of rats; type: in vivo, rat; conditions: 30 mg/kg each, 24 h after last injection
Source text: as §1, §2, §3, §4, §5, §6

[5] = biological target: T1, thymidylate synthase (TS); conditions: murine colon cancer; cited from earlier work
[6] = biological target: T2, L. casei TS-[3H]FdUMP (Lacticaseibacillus casei, UniProt P00469); assay: TS-[3H]FdUMP-folate ternary complex binding assay
T2 sequence (P00469 1-316): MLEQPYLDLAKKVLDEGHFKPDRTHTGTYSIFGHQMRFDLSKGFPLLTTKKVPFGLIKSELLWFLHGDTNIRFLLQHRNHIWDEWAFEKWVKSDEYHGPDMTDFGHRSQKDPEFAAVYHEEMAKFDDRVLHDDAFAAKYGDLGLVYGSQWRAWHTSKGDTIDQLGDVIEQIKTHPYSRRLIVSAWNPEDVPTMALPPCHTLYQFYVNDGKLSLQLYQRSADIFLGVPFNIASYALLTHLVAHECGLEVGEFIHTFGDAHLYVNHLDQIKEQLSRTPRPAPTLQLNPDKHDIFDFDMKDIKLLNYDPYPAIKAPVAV
Protocol: The CH2 FH4 was prepared as the racemic (6R, S) material from (6R, S)-FH4 and excess formaldehyde, and DEAE-column isolation as described in FIG. 1. This preparation was essentially free of free formaldehyde based on colorimetric assay of bulk material (Nash, Biochem. J. 55:416-21 (1953)).
At all concentrations (total assays volume 150 μl ), excess formaldeyde was required to obtain maximal binding (which was still only 19.3% of stoichiometric binding). A notable effect was the increasing need for formaldehyde addition with increasing dilution, to obtain maximal CH2 FH4 assay recovery.
TS[^3 H]FdUMP-folate ternary complex formation without formaldehyde
addition was 38.5% of the value for the natural (6R)CH2 FH4 wit
6 mM formaldehyde added. (About 1 pmole of parent CH2 FH4 was
^b Only 11.8 ± 7.9% of maximal L. casei TS[^3 H]FdUMP-folate
ternary complex formation (using 6 mM formaldehyde concentration) which i
(§7) The unnatural diastereomer, (6S)-CH2 FH4 prepared by DEAE-column,potassium bicarbonate separation from the natural diasteromer as described in Example 8, was dissolved in 0.2M Tris-HCl buffer, pH 7.0, containing sodium ascorbate (100 mM) and 2-mercaptoethanol. This preparation was from the same lot of material described in Example 8. As noted in the footnote of Table VII, in the absence of supplemental formaldehyde, the yield of dextrancharcoal isolated complex was 38.5% of the value for the natural (6R)-CH2 FH4 (with added 6 mM formaldehyde).

[7] = tested on: transplanted colon cancer; assay: Comparison of natural and unnatural CH2 FH4 diastereomers in rats bearing transplanted colon cancer; type: in vivo, rat; conditions: 15 mg/kg, Day 17, no fluorinated pyrimidine
Source text: A study has been completed, for comparison of natural (6R)-CH2 FH4 and unnatural (6S)-CH2 FH4 diastereomers. The preparation of the two forms was done as described by Kisliuk, et al., Cancer Treat. Rep. 61:647-50 (1977), using DEAE-cellulose column chromatography, with elution by potassium bicarbonate buffer. The two separate major peaks were individually pooled, lyophilized to dryness, and used for injection. As in the original detailed description of the method of Kisliuk, et al. (Biochem. 20:929-934), the methylene content was substoichiometric with tetrahydrofolate (FH4). That is, methylene units were present in apparently lower concentration than FH4 concentrations.
Rats bearing the transplanted colon cancer, as described in Example 4 and in Carlsson, et al., Anticancer. Res. 10:813-816, 1991, were treated with either the (6R)-CH2 FH4 or the (6S)-CH2 FH4, formulated and injected according to the methods described in Table IV, except that the injected amounts were 15 mg/kg per dose.
At Day 17, the rats were sacrificed, and the tumors were measured for both volume end weight. Volumes were calculated by the equation for an ellipsoid in revolution, V=(4/3)πab^2 were a=the long diameter/2 and b=the perpendicular short diameter/2.
The filled circles are the weights and volumes of tumors of rats treated with the unnatural (6S)-CH2 FH4 diastereomer (mostly (6R)-FH4 material in dilute solution and blood); the triangles are results for the natural (6R)-CH2 FH4 (mostly (6S)-FH4); and the open circles, control non-treated tumors. It is emphasized here that no fluorinated pyrimidine was used, just the folate injections.

[8] = biological target: T3, L. casei TS (Lacticaseibacillus casei, UniProt P00469); assay: L. casei/dUMP spectrophotometric cofactor assay; type: biochemical
T3 construct: spectrophotometric cofactor assay with dUMP
T3 sequence (P00469 1-316): T2 sequence (P00469 1-316)
Protocol: CH2 FH4 as the equal mixture of diastereomers (optical isomers or enantiomers at the C6-position; both diastereomers are of the natural L-configuration at the alpha-carbon position of the glutamate moiety) was prepared from (6R,S)-tetrahydrofolic acid, commercially available from Sigma, in the examples described below. The method of synthesis has been described previously (C. P. Spears and B. Gustavsson, Adv. Exp. Med. Biol. 244:98-104 (1988)). To (6R, S)-tetrahydrofolate (6R, S-FH4) powder, (100 mg) is added 360 μL of 1.0M Na Ascorbate, pH 6.5, 68 μL of 37% (w/w) formaldehyde (CH2 O), and 16 mL phosphate buffer, pH 7.0. A 10-min room temperature incubation allows completion of formation of (6R,S)-CH2 FH4. This material is applied to a DEAE-cellulose column using a modification of a well-known procedure (Kaufman et al., J. Biol. Chem. 238:1498-1500 (1963)). A step elution with NH4 HCO3 buffers of increasing concentration and pH, leads to isolation of CH2 FH4 in the last pooled fraction. […] CH2 FH4, prepared with [^14 C]CH2 O as described previously (Moran et al. Proc. Natl. Acad. Sci. USA 76:1456-60, 1979). […]

[9] = biological target: T4, TS (Homo sapiens, UniProt P04818); assay: TS activity in intact CCRF-CEM human lymphoblast cells by tritiated water release from [5-3H]deoxyuridine; type: cell-based; conditions: for tritiated water production: 48 μM; for remaining activity at 48 µM: read-out: tritiated water production, % of control
T4 construct: activity of TS in the intact cells; endogenous in cells; host or cells: CCRF-CEM human lymphoblast cells
Protocol: as §7
Separate cultures tubes at 37° C. with 1 ml each of CCRF-CEM human lymphoblast cells, 4.6×10^5 cells/ml, in exponential log phase growth were exposed to the unnatural diastereomer, (6R)-FH4 (made up from (6S)-CH2 FH4, 1.56 mM stock solution, with 32 microliters added to each ml of cells), 48 μM final concentration. Cells were incubated for 30, 60, and 120 minutes of drug exposure, prior to addition of [5-^3 H]deoxyuridine (150,000 CPM of approx. 18-20 Ci/mmo. spec. act.) and 10 min. 37° C. incubation prior to 3% charcoal addition for isolation of tritiated water. The amount of tritiated water is proportional to the activity of TS in the intact cells (N. Kundu et al., J. Med. Chem. 33:1975-79 (1990)).

[10] = humans; cited from earlier work

T1 sequence (P07607 whole entry): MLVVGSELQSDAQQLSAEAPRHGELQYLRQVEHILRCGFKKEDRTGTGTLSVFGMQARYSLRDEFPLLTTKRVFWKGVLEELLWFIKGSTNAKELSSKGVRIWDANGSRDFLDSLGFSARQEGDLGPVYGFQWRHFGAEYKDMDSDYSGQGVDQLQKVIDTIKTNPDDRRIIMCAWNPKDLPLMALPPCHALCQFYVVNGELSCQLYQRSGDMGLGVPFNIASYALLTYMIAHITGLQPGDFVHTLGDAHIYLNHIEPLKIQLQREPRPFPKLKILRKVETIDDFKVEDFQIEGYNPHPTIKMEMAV
T4 sequence (P04818 whole entry): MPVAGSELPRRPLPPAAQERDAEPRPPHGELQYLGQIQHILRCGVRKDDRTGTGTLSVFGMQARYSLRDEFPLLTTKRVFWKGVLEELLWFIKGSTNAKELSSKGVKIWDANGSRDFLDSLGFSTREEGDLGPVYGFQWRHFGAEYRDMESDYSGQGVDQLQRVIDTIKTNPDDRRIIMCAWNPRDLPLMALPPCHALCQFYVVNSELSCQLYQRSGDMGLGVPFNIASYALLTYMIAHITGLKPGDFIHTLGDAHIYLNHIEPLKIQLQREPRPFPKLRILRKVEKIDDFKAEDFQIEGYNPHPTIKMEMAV

SMILES: O=c1[nH]cc(F)c(=O)[nH]1 [5-FU, 5-Fluorouracil]
Free TS ([1]; 1 h): 1.67 pmol/g
Free TS ([1]; 3 h): 1.00 pmol/g
Free TS ([1]; 6 h): 1.27 pmol/g
TS inhibition, corrected ([1]; minimal correction factor of 5%, average / all tumors): 92%
inhibition at 80 mg/kg ([1]; read-out: % Inhibition (TS), 1 h): 83.3%
inhibition at 80 mg/kg ([1]; read-out: % Inhibition (TS), 3 h): 90%
inhibition at 80 mg/kg ([1]; read-out: % Inhibition (TS), 6 h): 87.3%
Tumor weight [2]: 1.03 g
TS [3]: 9.03 p mole/g
5,10-CH2 FH4 ([4]; control 0.69): 4.11 nmol/g
FH4 ([4]; control 1.18): 2.39 nmol/g
TS inhibition as therapeutic mechanism [5]: complete inhibition of TS

TS-[3H]FdUMP-ternary complex yield, % of value for natural (6R)-CH2 FH4 with 6 mM formaldehyde ([6]; in the presence of formaldehyde): 23.3%
TS-[3H]FdUMP-folate ternary complex formation, % of value for natural (6R)-CH2 FH4 with 6 mM formaldehyde ([6]; without formaldehyde addition): 38.5%
cofactor activity [8]: No cofactor activity
tritiated water production ([9]; 30 min exposure, control 2566): 2004 CPM
tritiated water production ([9]; 60 min exposure, control 2662): 1750 CPM
tritiated water production ([9]; 120 min exposure, control 2902): 1146 CPM
remaining activity at 48 µM ([9]; CCRF-CEM, 30 min): 78.1%
remaining activity at 48 µM ([9]; CCRF-CEM, 60 min): 65.7%
remaining activity at 48 µM ([9]; CCRF-CEM, 120 min): 39.5%
inhibition at 48 µM ([9]; CCRF-CEM, two hour time point): 60.5%
SMILES: Nc1nc2c(c(=O)[nH]1)N1CN(c3ccc(C(=O)N[C@@H](CCC(=O)O)C(=O)O)cc3)C[C@@H]1CN2 [(6S)-CH2 FH4]
Tumor volume ± SE ([7]; control 7.81): 0.74
Tumor weight ± SE ([7]; control 7.93): 2.14

SMILES: C=O [CH2 O, formaldehyde]
oral LDLo (lowest lethal dose) [10]: 36 mg/kg
